# Assay results from ChEMBL document CHEMBL1201862, “PubChem BioAssay data set” (2004).
#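 Assay format: 96-well plates, 48-hour exposure. The concentration for 50% growth inhibition is given as GI50.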 Active and inactive are the calls of the source. No stated cut-off is given here; in the data, active = GI50 up to about 1.1 µM and inactive = higher.
# Tests used:
# Assay in all cases: inhibition of tumour cell growth, NCI panel, 48 h
# [1] = tested on: 786-0
# [2] = tested on: A549
# [3] = tested on: ACHN
# [4] = tested on: BT-549
# [5] = tested on: CAKI-1
# [6] = tested on: CCRF-CEM
# [7] = tested on: COLO 205
# [8] = tested on: DU-145
# [9] = tested on: EKVX
# [10] = tested on: HCC 2998
# [11] = tested on: HCT-116
# [12] = tested on: HCT-15
# [13] = tested on: HL-60
# [14] = tested on: HOP-62
# [15] = tested on: HOP-92
# [16] = tested on: HT-29
# [17] = tested on: Hs-578T
# [18] = tested on: IGROV-1
# [19] = tested on: K562
# [20] = tested on: KM12
# [21] = tested on: LOX IMVI
# [22] = tested on: M14
# [23] = tested on: MCF7
# [24] = tested on: MDA-MB-231
# [25] = tested on: MDA-MB-435
# [26] = tested on: MDA-N
# [27] = tested on: MOLT-4
# [28] = tested on: Malme-3M
# [29] = tested on: NCI-H226
# [30] = tested on: NCI-H23
# [31] = tested on: NCI-H460
# [32] = tested on: NCI-H522
# [33] = tested on: NCI/ADR-RES
# [34] = tested on: OVCAR-3
# [35] = tested on: OVCAR-4
# [36] = tested on: OVCAR-5
# [37] = tested on: OVCAR-8
# [38] = tested on: PC-3
# [39] = tested on: RPMI-8226
# [40] = tested on: RXF 393
# [41] = tested on: SF-268
# [42] = tested on: SF-295
# [43] = tested on: SK-MEL-28
# [44] = tested on: SK-MEL-2
# [45] = tested on: SK-MEL-5
# [46] = tested on: SK-OV-3
# [47] = tested on: SN12C
# [48] = tested on: SNB-19
# [49] = tested on: SNB-75
# [50] = tested on: SR
# [51] = tested on: SW-620
# [52] = tested on: T47D
# [53] = tested on: TK-10
# [54] = tested on: U-251
# [55] = tested on: UACC-257
# [56] = tested on: UACC-62
# [57] = tested on: UO-31
# [58] = tested on: SF-539
smiles,measurement,setting,value
COc1cnc2cc(C(=O)O)c3c([N+](=O)[O-])cccc3c2c1,GI50,[1],> 100 µM (inactive)
same,GI50,[2],> 100 µM (inactive)
same,GI50,[3],> 100 µM (inactive)
same,GI50,[4],> 100 µM (inactive)
same,GI50,[5],> 100 µM (inactive)
same,GI50,[6],> 100 µM (inactive)
same,GI50,[7],> 100 µM (inactive)
same,GI50,[8],> 100 µM (inactive)
same,GI50,[9],> 100 µM (inactive)
same,GI50,[10],> 100 µM (inactive)
same,GI50,[11],> 100 µM (inactive)
same,GI50,[12],> 100 µM
same,GI50,[13],> 100 µM (inactive)
same,GI50,[14],> 100 µM (inactive)
same,GI50,[15],> 100 µM (inactive)
same,GI50,[16],> 100 µM (inactive)
same,GI50,[17],> 100 µM (inactive)
same,GI50,[18],> 100 µM (inactive)
same,GI50,[19],> 100 µM (inactive)
same,GI50,[20],> 100 µM (inactive)
same,GI50,[21],> 100 µM (inactive)
same,GI50,[22],> 100 µM (inactive)
same,GI50,[23],> 100 µM (inactive)
same,GI50,[24],> 100 µM (inactive)
same,GI50,[25],> 100 µM (inactive)
same,GI50,[26],> 100 µM (inactive)
same,GI50,[27],> 100 µM (inactive)
same,GI50,[28],> 100 µM (inactive)
same,GI50,[29],> 100 µM (inactive)
same,GI50,[30],> 100 µM (inactive)
same,GI50,[31],> 100 µM (inactive)
same,GI50,[32],> 100 µM (inactive)
same,GI50,[33],> 100 µM (inactive)
same,GI50,[34],> 100 µM (inactive)
same,GI50,[35],> 100 µM (inactive)
same,GI50,[36],> 100 µM (inactive)
same,GI50,[37],> 100 µM (inactive)
same,GI50,[38],> 100 µM (inactive)
same,GI50,[39],> 100 µM (inactive)
same,GI50,[40],> 100 µM (inactive)
same,GI50,[41],> 100 µM (inactive)
same,GI50,[42],> 100 µM (inactive)
same,GI50,[43],> 100 µM (inactive)
same,GI50,[44],> 100 µM (inactive)
same,GI50,[45],> 100 µM (inactive)
same,GI50,[46],> 100 µM (inactive)
same,GI50,[47],> 100 µM (inactive)
same,GI50,[48],> 100 µM (inactive)
same,GI50,[49],> 100 µM (inactive)
same,GI50,[50],> 100 µM (inactive)
same,GI50,[51],> 100 µM (inactive)
same,GI50,[52],> 100 µM (inactive)
same,GI50,[53],> 100 µM (inactive)
same,GI50,[54],> 100 µM (inactive)
same,GI50,[55],> 100 µM (inactive)
same,GI50,[56],> 100 µM (inactive)
same,GI50,[57],> 100 µM (inactive)
CC(C)CCC[C@@H](C)C1CCC2[C@@H]3CCC4C[C@@H](NS(C)(=O)=O)CC[C@]4(C)C3CC[C@@]21C (stereo partly specified),GI50,[1],> 100 µM (inactive)
same,GI50,[2],> 100 µM (inactive)
same,GI50,[4],> 100 µM (inactive)
same,GI50,[5],> 100 µM (inactive)
same,GI50,[6],> 100 µM (inactive)
same,GI50,[7],> 100 µM (inactive)
same,GI50,[8],> 100 µM (inactive)
same,GI50,[9],> 100 µM (inactive)
same,GI50,[11],> 100 µM (inactive)
same,GI50,[12],> 100 µM
same,GI50,[13],> 100 µM (inactive)
same,GI50,[14],> 100 µM (inactive)
same,GI50,[16],> 100 µM (inactive)
same,GI50,[17],> 100 µM (inactive)
same,GI50,[18],> 100 µM (inactive)
same,GI50,[19],> 100 µM (inactive)
same,GI50,[20],> 100 µM (inactive)
same,GI50,[21],> 100 µM (inactive)
same,GI50,[22],> 100 µM (inactive)
same,GI50,[23],> 100 µM (inactive)
same,GI50,[24],> 100 µM (inactive)
same,GI50,[25],> 100 µM (inactive)
same,GI50,[26],> 100 µM (inactive)
same,GI50,[27],> 100 µM (inactive)
same,GI50,[28],> 100 µM (inactive)
same,GI50,[29],> 100 µM (inactive)
same,GI50,[30],> 100 µM (inactive)
same,GI50,[31],> 100 µM (inactive)
same,GI50,[32],> 100 µM (inactive)
same,GI50,[33],> 100 µM (inactive)
same,GI50,[34],> 100 µM (inactive)
same,GI50,[35],> 100 µM (inactive)
same,GI50,[37],> 100 µM (inactive)
same,GI50,[38],> 100 µM (inactive)
same,GI50,[39],> 100 µM (inactive)
same,GI50,[40],> 100 µM (inactive)
same,GI50,[41],> 100 µM (inactive)
same,GI50,[42],> 100 µM (inactive)
same,GI50,[58],> 100 µM (inactive)
same,GI50,[43],> 100 µM (inactive)
same,GI50,[44],> 100 µM (inactive)
same,GI50,[45],> 100 µM (inactive)
same,GI50,[46],> 100 µM (inactive)
same,GI50,[47],> 100 µM (inactive)
same,GI50,[48],> 100 µM (inactive)
same,GI50,[49],> 100 µM (inactive)
same,GI50,[50],> 100 µM (inactive)
same,GI50,[51],> 100 µM (inactive)
same,GI50,[52],> 100 µM (inactive)
same,GI50,[53],> 100 µM (inactive)
same,GI50,[54],> 100 µM (inactive)
same,GI50,[55],> 100 µM (inactive)
same,GI50,[56],> 100 µM (inactive)
same,GI50,[57],> 100 µM (inactive)
